Measurements published in patent US20210116454A1, “METHODS FOR TREATING A HEMATOLOGICAL CANCER AND THE USE OF COMPANION BIOMARKERS FOR 2-(2,6-DIOXOPIPERIDIN-3-YL)-4-((2-FLUORO-4-((3-MORPHOLINOAZETIDIN-1-YL)METHYL)BENZYL)AMINO)ISOINDOLINE-1,3-DIONE” (CELGENE CORPORATION, priority 2019, published 2021).
Like-named read-outs stand apart in the source and are kept apart here.

Experiments:
[1] = system: SU-DHL-4; experiment: CellTiter-Glo (CTG) antiproliferative assay, 5-day; assay type: cell-based; settings: for antiproliferative activity (in words): SU-DHL-4, CellTiter-Glo
Description: To evaluate the activity of both Compound 1 and Compound 2 in DLBCL cells, a CellTiter-Glo (CTG) assay was performed to measure the antiproliferative activity.

[2] = system: SU-DHL-2 cells; experiment: Western blot of substrate degradation by each enantiomer, short time-course; assay type: cell-based; settings: SU-DHL-2, higher concentrations and longer exposure
Description: Pure samples of each enantiomer were tested for cellular degradation of substrate proteins measured over a short time-course (FIG. 16). SU-DHL-2 cells were treated for 1, 2, and 6 hours with vehicle control (0.1% DMSO), Compound 1 (1, 10, 100 nM), or Compound 2 (1, 10, 100 nM). Western blot analysis was used to evaluate the extent of degradation of the protein substrates Aiolos, Ikaros, and ZFP91. Compound 1 inhibited Aiolos, Ikaros, and ZFP91 in as early as 1 hour of treatment with as little as 1 nM.

[3] = target: cereblon (CRBN) (Homo sapiens, UniProt Q96SW2); experiment: Cereblon binding TR-FRET ligand competition assay; settings: 10 to 20 minutes, n=5
Description: To investigate whether Compound 1 and its R-enantiomer Compound 2 could bind to cereblon, a short duration (10 to 20 minutes) ligand competition assay was used.

[4] = target: Ikaros (Homo sapiens, UniProt Q13422+Q96SW2); experiment: ePL-tagged substrate degradation kinetics in DF15 cells (enantiomer comparison); assay type: cell-based; design: expressed in transfected cells; host or cells: DF15 cells; Ikaros Y-constant: scale not given here; settings: for DC50: read-out: Ikaros EC50
Description: (§1) In a second assay, DF15 cell lines expressing ePL-tagged target protein substrates were used as a model system to monitor protein degradation at 0.75, 1, 1.5, 3, 4, and 24 hours over a concentration range from 1 pM to 10 μM. The proteins evaluated were Ikaros (FIG. 17), Aiolos, and ZFP91. Compound 1 and Compound 2 were both able to degrade the substrate proteins at all time points (Table 9). In a further assay, additional time points were included to monitor the effect of treatment with Compound 1 and Compound 2.
(§2) The depth of substrate protein degradation described by the Y-constant was also measured in this assay against a negative control luciferase inhibitor (CC1071297, Y-constant=0).

[5] = target: T1, ZFP91 (Homo sapiens, UniProt Q96JP5+Q96SW2); experiment: as above; assay type: cell-based; design: ZFP91 Y-constant: scale not given here; settings: for DC50: read-out: ZFP91 EC50
T1 construct: expressed in transfected cells; host or cells: DF15 cells
Description: as §1, §2

[6] = target: T2, Aiolos (Homo sapiens, UniProt Q96SW2+Q9UKT9); experiment: as above; assay type: cell-based; design: Aiolos Y-constant: scale not given here; settings: for DC50: read-out: Aiolos EC50
T2 construct: expressed in transfected cells; host or cells: DF15 cells
Description: as §1, §2

[7] = system: KARPAS-1106P; experiment: 5-day viable cell number and apoptosis (7-AAD exclusion/Annexin V flow cytometry); assay type: cell-based; settings: Homo sapiens; KARPAS-1106P cells (Table 3); read-out: IC50
From the text: (§3) The DLBCL panel includes seven cell lines classified as activated B-cell (ABC) subtype, thirteen cell lines classified as the germinal center B-cell (GCB) subtype, and three cell lines classified as primary mediastinal B-cell lymphoma (PMBL). […] The translocation of MYC, BCL6, or BCL2 to an IG locus usually leads to high levels of mRNA and protein due to the active transcription driven by a constitutively active IG promoter. […] Expressions of CRBN protein and known substrates, Ikaros, Aiolos, and ZFP91 were also evaluated (FIG. 1, panels B and C).
(§4) The panel of cell lines were treated with increasing doses of compounds for five days, at which time the number of viable cells was measured and the amount of apoptosis was determined by 7-AAD exclusion and Annexin V staining using flow cytometry.

[8] = system: SU-DHL-8; experiment: as above; assay type: cell-based; settings: Homo sapiens; SU-DHL-8 cells (Table 3); read-out: IC50
From the text: as §3, §4

[9] = system: RC-K8; experiment: as above; assay type: cell-based; settings: Homo sapiens, RCK8; RC-K8 cells (Table 3); read-out: IC50
From the text: as §3, §4

[10] = system: SU-DHL-16; experiment: as above; assay type: cell-based; settings: Homo sapiens; SU-DHL-16 cells (Table 3); read-out: IC50
From the text: as §3, §4

[11] = system: WSU-DLCL2; experiment: as above; assay type: cell-based; settings: Homo sapiens, WSUDLCL2; WSU-DLCL2 cells (Table 3); read-out: IC50
From the text: as §3, §4

[12] = system: Farage; experiment: as above; assay type: cell-based; settings: Farage cells (Table 3); read-out: IC50
From the text: as §3, §4

[13] = system: SU-DHL-2; experiment: as above; assay type: cell-based; settings: Homo sapiens; SU-DHL-2 cells (Table 3); read-out: IC50
From the text: as §3, §4

[14] = system: SU-DHL-10; experiment: as above; assay type: cell-based; settings: Homo sapiens, SU-DHL10; SU-DHL-10 cells (Table 3); read-out: IC50
From the text: as §3, §4

[15] = system: OCI-Ly10; experiment: as above; assay type: cell-based; settings: Homo sapiens; OCI-Ly10 cells (Table 3); read-out: IC50
From the text: as §3, §4

[16] = system: DB; experiment: as above; assay type: cell-based; settings: Homo sapiens; DB cells (Table 3)
From the text: as §3, §4

[17] = system: HT; experiment: as above; assay type: cell-based; settings: Homo sapiens; HT cells (Table 3); read-out: IC50
From the text: as §3, §4

[18] = system: U2932; experiment: as above; assay type: cell-based; settings: Homo sapiens; U2932 cells (Table 3); read-out: IC50
From the text: as §3, §4

[19] = system: OCI-LY-7; experiment: as above; assay type: cell-based; settings: Homo sapiens, OCI-Ly7; OCI-LY-7 cells (Table 3); read-out: IC50
From the text: as §3, §4

[20] = system: Pfeiffer; experiment: as above; assay type: cell-based; settings: Homo sapiens; Pfeiffer cells (Table 3)
From the text: as §3, §4

[21] = system: SU-DHL-4; experiment: as above; assay type: cell-based; settings: Homo sapiens; SU-DHL-4 cells (Table 3); read-out: IC50
From the text: as §3, §4

[22] = system: RIVA; experiment: as above; assay type: cell-based; settings: RIVA cells (Table 3); read-out: IC50
From the text: as §3, §4

[23] = system: KARPAS-422; experiment: as above; assay type: cell-based; settings: Homo sapiens; KARPAS-422 cells (Table 3); read-out: IC50
From the text: as §3, §4

O=C1CCC(N2C(=O)c3cccc(NCc4ccc(CN5CC(N6CCOCC6)C5)cc4F)c3C2=O)C(=O)N1 (racemic) [Compound 3, 2-(2,6-Dioxopiperidin-3-yl)-4-((2-fluoro-4-((3-morpholinoazetidin-1-yl)methyl)benzyl)amino)isoindoline-1,3-dione]
antiproliferative activity (in words) [1]: Potent antiproliferative activity

O=C1CC[C@@H](N2C(=O)c3cccc(NCc4ccc(CN5CC(N6CCOCC6)C5)cc4F)c3C2=O)C(=O)N1 [Compound 2, (R)-2-(2,6-dioxopiperidin-3-yl)-4-((2-fluoro-4-((3-morpholinoazetidin-1-yl)methyl)benzyl)amino)isoindoline-1,3-dione]
IC50 ([1]; Homo sapiens, 120 h, SU-DHL-4, 5-day assay, n = 6): 0.032 µM
antiproliferative activity (in words) [1]: Potent antiproliferative activity
expression of Aiolos, Ikaros, and ZFP91 [2]: decreased expression
IC50 [3]: 10.2 ± 1 µM
Ikaros Y-constant ([4]; 0.75 hours): 47.0
DC50 ([4]; 0.75 hours): 0.0397 µM
Ikaros Y-constant ([4]; 1 hour): 34.4
DC50 ([4]; 1 hour): 0.027 µM
Ikaros Y-constant ([4]; 1.5 hours): 15.3
DC50 ([4]; 1.5 hours): 0.0225 µM
Ikaros Y-constant ([4]; 3 hours): 7.3
DC50 ([4]; 3 hours): 0.00888 µM
Ikaros Y-constant ([4]; 4 hours): 5.5
DC50 ([4]; 4 hours): 0.00731 µM
Ikaros Y-constant ([4]; 24 hours): 2.4
DC50 ([4]; 24 hours): 0.0007 µM
ZFP91 Y-constant ([5]; 0.75 hours): 41
DC50 ([5]; 0.75 hours): 0.029 µM
ZFP91 Y-constant ([5]; 1 hour): 22
DC50 ([5]; 1 hour): 0.025 µM
ZFP91 Y-constant ([5]; 1.5 hours): 10
DC50 ([5]; 1.5 hours): 0.016 µM
ZFP91 Y-constant ([5]; 3 hours): 4.6
DC50 ([5]; 3 hours): 0.0045 µM
ZFP91 Y-constant ([5]; 4 hours): 4.1
DC50 ([5]; 4 hours): 0.0026 µM
ZFP91 Y-constant ([5]; 24 hours): 2.5
DC50 ([5]; 24 hours): 0.00035 µM
Aiolos Y-constant ([6]; 0.75 hours): 54
DC50 ([6]; 0.75 hours): 0.038 µM
Aiolos Y-constant ([6]; 1 hour): 37
DC50 ([6]; 1 hour): 0.024 µM
Aiolos Y-constant ([6]; 1.5 hours): 15
DC50 ([6]; 1.5 hours): 0.017 µM
Aiolos Y-constant ([6]; 3 hours): 3.5
DC50 ([6]; 3 hours): 0.01 µM
Aiolos Y-constant ([6]; 4 hours): 3.5
DC50 ([6]; 4 hours): 0.0073 µM
Aiolos Y-constant ([6]; 24 hours): 3.8
DC50 ([6]; 24 hours): 0.0053 µM

CC1(C)CCC(CN2CCN(c3ccc(C(=O)NS(=O)(=O)c4ccc(NCC5CCOCC5)c([N+](=O)[O-])c4)c(Oc4cnc5[nH]ccc5c4)c3)CC2)=C(c2ccc(Cl)cc2)C1 [Venetoclax, 4-(4-{[2-(4-chlorophenyl)-4,4-dimethylcyclohex-1-en-1-yl]methyl}piperazin-1-yl)-N-({3-nitro-4-[(tetrahydro-2H-pyran-4ylmethyl)amino]phenyl}sulfonyl)-2-(1H-pyrrolo[2,3-b]pyridin-5-yloxy)benzamide, reference compound]
IC50 [7]: 200 µM
IC50 [8]: 548 µM
IC50 [9]: 609 µM
IC50 [10]: 21 µM
IC50 [11]: 215 µM
IC50 [12]: 560 µM
IC50 [13]: 355 µM
IC50 [14]: 454 µM
IC50 [15]: 200 µM
IC50 [16]: 82 µM
IC50 [17]: 644 µM
IC50 [18]: 230 µM
IC50 [19]: 1010 µM
IC50 [20]: 432 µM
IC50 [21]: 145 µM
IC50 [22]: 5 µM
IC50 [23]: 75 µM
